ChEMBL document CHEMBL5331101, “Synthesis and evaluation of N-sulfonylpiperidine-3-carboxamide derivatives as capsid assembly modulators inhibiting HBV in vitro and in HBV-transgenic mice” (Eur J Med Chem, 2023)
Active and inactive are the calls of the source. The calls are words filed in the database; no cut-off is given here.

Legend:
Hepatitis B virus [1] = experiment: Antiviral activity against HBV infected in human HePAD38 cells assessed as reduction in intracellular core HBV DNA level at 20 uM incubated for 6 days by qPCR analysis relative to control; assay type: functional; design: scale not given: the % may be the effect or the level left; conditions: time 6 day
[2] = Selectivity index, ratio of CC50 for cytotoxicity against human HepAD38 cells to EC50 for antiviral activity against HBV infected in human HePAD38 cells; assay type: toxicity, cell-based; conditions: read-out: Ratio CC50/EC50
Hepatitis B virus [3] = experiment: Antiviral activity against HBV infected in human HePAD38 assessed as reduction on HBeAg level at 20 uM by ELISA analysis relative to control; assay type: functional; design: scale not given: the % may be the effect or the level left
Hepatitis B virus [4] = experiment: Antiviral activity against HBV infected in human HePAD38 cells assessed as decay of viral core protein by agarose gel electrophoresis-based assay; assay type: functional, organism-based
Hepatitis B virus [5] = experiment: Antiviral activity against HBV infected in human HePAD38 cells assessed as reduction of capsid associated HBV DNA; assay type: functional, organism-based
Hepatitis B virus [6] = experiment: Antiviral activity against HBV infected in human HePAD38 assessed as reduction on HBsAg level at 20 uM by ELISA analysis relative to control; assay type: functional; design: scale not given: the % may be the effect or the level left
[7] = Cytotoxicity against human HepAD38 cells assessed as reduction in cell viability incubated for 6 days by CCK-8 assay; assay type: functional; conditions: HePAD38, 144 h, time 6 day
Hepatitis B virus [8] = experiment: Antiviral activity against HBV infected in human HePAD38 cells assessed as decay of viral capsid protein by agarose gel electrophoresis-based assay; assay type: functional, organism-based
Hepatitis B virus [9] = experiment: Antiviral activity against HBV infected in human HePAD38 assessed as reduction on HBsAg level at 2 uM by ELISA analysis relative to control; assay type: functional; design: scale not given: the % may be the effect or the level left
Hepatitis B virus [10] = experiment: Antiviral activity against HBV infected in human HePAD38 cells assessed as reduction in capsid formation at 2 uM measured for 6 days by agarose gel electrophoresis-based assay; assay type: functional, organism-based; conditions: time 6.0 day
[11] = target: Core antigen (Hepatitis B virus) (UniProt Q03732); experiment: Modulation of capsid assembly in HBV infected in human HePAD38 cells assessed as inhibition of viral DNA replication at 5 uM incubated for 3 to 7 days by electron microscopic analysis; assay type: cell-based; conditions: filed as modulator, time 3-7 day
Core antigen (Hepatitis B virus), sequence (Q03732 as listed by the source): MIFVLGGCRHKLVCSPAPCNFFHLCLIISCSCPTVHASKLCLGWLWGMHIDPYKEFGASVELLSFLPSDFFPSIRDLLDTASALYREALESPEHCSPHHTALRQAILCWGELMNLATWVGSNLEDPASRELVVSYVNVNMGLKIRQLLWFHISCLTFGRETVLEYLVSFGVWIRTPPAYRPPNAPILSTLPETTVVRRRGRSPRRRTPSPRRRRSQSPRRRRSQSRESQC

Hepatitis B virus [12] = experiment: Antiviral activity against HBV infected in human HePAD38 cells assessed as reduction in intracellular core HBV DNA level at 2 uM incubated for 6 days by qPCR analysis relative to control; assay type: functional; design: scale not given: the % may be the effect or the level left; conditions: time 6 day
Hepatitis B virus [13] = experiment: Antiviral activity against HBV infected in human HePAD38 assessed as reduction on HBeAg level at 2 uM by ELISA analysis relative to control; assay type: functional; design: scale not given: the % may be the effect or the level left
Hepatitis B virus [14] = experiment: Antiviral activity against HBV infected in human HePAD38 assessed as reduction on HBsAg level at 5 uM by ELISA analysis relative to control; assay type: functional; design: scale not given: the % may be the effect or the level left
Hepatitis B virus [15] = experiment: Antiviral activity against HBV infected in human HePAD38 assessed as reduction on HBeAg level at 5 uM by ELISA analysis relative to control; assay type: functional; design: scale not given: the % may be the effect or the level left
Hepatitis B virus [16] = experiment: Antiviral activity against HBV infected in human HepAD38 cells assessed as effect on capsid morphology at 20 uM incubated for 3 to 7 days by transmission electron microscopy; assay type: functional, organism-based; conditions: time 3-7 day
Hepatitis B virus [17] = experiment: Antiviral activity against HBV infected in human HePAD38 cells assessed as reduction in intracellular core HBV DNA level at 5 uM incubated for 6 days by qPCR analysis relative to control; assay type: functional; design: scale not given: the % may be the effect or the level left; conditions: time 6 day
Hepatitis B virus [18] = experiment: Antiviral activity against wild type HBV infected in human HepG2 cells assessed as inhibition of viral replication; assay type: functional, organism-based
Hepatitis B virus [19] = experiment: Antiviral activity against ETV-resistant HBV infected in human HepG2 cells assessed as inhibition of viral replication; assay type: functional, organism-based
Hepatitis B virus [20] = experiment: Antiviral activity against HBV infected in human HePAD38 assessed as reduction on HBsAg level at 25 nM by ELISA analysis relative to control; assay type: functional; design: scale not given: the % may be the effect or the level left
Hepatitis B virus [21] = experiment: Antiviral activity against HBV infected in human HePAD38 assessed as reduction on HBeAg level at 25 nM by ELISA analysis relative to control; assay type: functional; design: scale not given: the % may be the effect or the level left
Hepatitis B virus [22] = experiment: Antiviral activity against HBV infected in human HePAD38 cells assessed as reduction in intracellular core HBV DNA level at 25 nM incubated for 6 days by qPCR analysis relative to control; assay type: functional; design: scale not given: the % may be the effect or the level left; conditions: time 6 day

| SMILES | Activity (Hepatitis B virus [1]) | selectivity ratio [2] | Activity (Hepatitis B virus [3]) | Activity (Hepatitis B virus [4]) | EC50 (Hepatitis B virus [5]) | Activity (Hepatitis B virus [6]) | CC50 [7] | Activity (Hepatitis B virus [8]) | other results |
| --- | --- | --- | --- | --- | --- | --- | --- | --- | --- |
| CCOC(=O)c1c(S(=O)(=O)N2CCCC(C(=O)Nc3ccc(F)c(F)c3)C2)c(C)n(C)c1C (stereo not drawn) | 11.5% | > 192 | 27.2% | Active | 520 nM | 96% | > 100000 nM | Active |  |
| COC(=O)c1c(S(=O)(=O)N2CCC[C@H](C(=O)Nc3ccc(F)c(C#N)c3)C2)c(C)n(C)c1C | 29.7% |  | 61.9% |  |  | 92.4% |  |  |  |
| COC(=O)c1c(S(=O)(=O)N2CCC[C@H](C(=O)Nc3ccc(F)c(Cl)c3)C2)c(C)n(C)c1C | 39.7% |  | 67.4% |  |  | 94% |  |  |  |
| COC(=O)c1c(S(=O)(=O)N2CCO[C@H](C(=O)Nc3ccc(F)c(C)c3)C2)c(C)n(C)c1C | 39% |  | 59% |  |  | 88.2% |  |  |  |
| CCOC(=O)c1c(S(=O)(=O)N2CCCC(C(=O)Nc3ccc(F)cc3F)C2)c(C)n(C)c1C (stereo not drawn) | 44.9% |  | 54% |  |  | 93.5% |  |  |  |
| COC(=O)c1c(S(=O)(=O)N2CCC[C@H](C(=O)Nc3ccc(F)c(C)c3)C2)c(C)n(C(F)F)c1C | 9.6% | 179 | 37.9% | inactive | 330 nM | 92.8% | 59200 nM | inactive |  |
| CCOC(=O)c1c(S(=O)(=O)N2CCCC(C(=O)Nc3ccc(F)cc3)C2)c(C)n(C)c1C (stereo not drawn) | 53.4% |  | 62.4% |  |  | 86.6% |  |  |  |
| COC(=O)c1c(S(=O)(=O)N2CCC[C@H](C(=O)Nc3ccc(F)c(C)c3)C2)c(C)n(C)c1C | 29.8% |  | 54.6% |  |  | 97.3% |  |  |  |
| COC(=O)C1=C(C)NC(c2ncc(F)cc2F)=N[C@H]1c1ccc(F)cc1Cl |  |  |  | Active | 50 nM |  | > 20000 nM | Active | Activity (Hepatitis B virus [9]): 88.5%; Activity (Hepatitis B virus [10]): Active; Activity [11]: Active; Activity (Hepatitis B virus [12]): 4.9%; Activity (Hepatitis B virus [13]): 31.8% |
| CCOC(=O)c1c(S(=O)(=O)N2CCCC(C(=O)Nc3ccc(F)c(Cl)c3)C2)c(C)n(C)c1C (stereo not drawn) | 11.8% |  | 27.1% | Active |  | 94.4% |  | Active |  |
| Cc1c(C#N)c(S(=O)(=O)N2CCC[C@H](C(=O)Nc3ccc(F)c(Cl)c3)C2)c(C)n1C | 11.1% | > 22.7 | 36% | inactive | 4410 nM | 99.8% | > 100000 nM | inactive |  |
| Cc1cc(NC(=O)c2cccc(S(=O)(=O)N[C@H]3CCOC3)c2)ccc1F |  | > 370 |  | inactive | 270 nM |  | > 100000 nM | inactive | Activity (Hepatitis B virus [14]): 97%; Activity (Hepatitis B virus [15]): 36.1%; Activity (Hepatitis B virus [16]): inactive; Activity (Hepatitis B virus [17]): 5.8% |
| C=C1[C@H](CO)[C@@H](O)C[C@@H]1n1cnc2c(=O)[nH]c(N)nc21 [ENTECAVIR ANHYDROUS] |  | > 155 |  |  | 3 nM |  | > 500 nM |  | EC50 (Hepatitis B virus [18]): 270 nM; EC50 (Hepatitis B virus [19]): 340 nM; Activity (Hepatitis B virus [20]): 93.7%; Activity (Hepatitis B virus [21]): 93.4%; Activity (Hepatitis B virus [22]): 3.1% |
| COC(=O)c1c(S(=O)(=O)N2CCC[C@H](C(=O)Nc3ccc(F)c(C)c3)C2)c(C)n(CC(C)=O)c1C | 38.2% |  | 49.4% |  |  | 92.8% |  |  |  |
| CCOC(=O)c1c(S(=O)(=O)N2CCCC(C(=O)Nc3ccc(F)c(Cl)c3)C2)c(C)n(CC)c1C (stereo not drawn) | 44.2% |  | 66% |  |  | 98.2% |  |  |  |
| CCOC(=O)c1c(S(=O)(=O)N2CCC[C@H](C(=O)Nc3ccc(F)c(C)c3)C2)c(C)n(C2CC2)c1C | 7.7% | > 17 | 41.6% | inactive | 5870 nM | 91.6% | > 100000 nM | inactive |  |
| COC(=O)c1c(S(=O)(=O)N2CCC[C@@H](C(=O)Nc3ccc(F)c(C)c3)C2)c(C)n(C)c1C | 34.9% |  | 62.2% |  |  | 100.5% |  |  |  |
| COC(=O)c1c(C)[nH]c(C)c1S(=O)(=O)N1CCC[C@H](C(=O)Nc2ccc(F)c(C)c2)C1 | 3.7% |  | 73.2% |  |  | 106.1% |  |  |  |
